Results from US9687432B2, “Antimicrobial bispyridine amine compositions and uses” (LONZA INC., priority 2012, dated 2017).
Structures can show the parent of a compound that is named as a salt. Where two headings read alike, the source gives them in different places.

What was measured:
[1] = Foam height test; type: physicochemical; conditions: for foam height, 30 sec / foam height, 1 min / foam height, 2 min / foam height, Initial Reading: 0.5 grams in 49.5 ml DI water; for foam height, 30 sec / foam height, 1 min / foam height, 2 min: 100 ml graduated cylinder; for foam height, Initial Reading: read in 100 ml graduated cylinder with 1 ml line increments; for Type of Foam: 0.5 grams of active in 49.5 ml DI water, blended 1 minute
Method: The testing was performed on samples containing octenidine dihydrochloride, octenidine distearate, PHMB HCl and the chloride salts benzalkonium chloride, benzethonium chloride, and cetylpyridinium chloride.
A 250 ml beaker was filed with 49.5 ml of deionized (DI) water for each sample. Then, 0.5 grams of the active was added to the beaker. Each solution was blended with a Bamix® wand homogenizer/mixer for 1 minute. The solution was then poured into a 100 ml graduated cylinder with 1 ml line increments. The height of the foam was documented at an initial, 30 second, 1 minute, and 2 minute time point.

[2] = test system: EpiDerm™ Skin Model (EPI-200); test: MatTek EpiDerm MTT Viability Assay (dermal irritancy); type: cell-based, human
Method: The MatTek EpiDerm™ MTT Viability Assay (MatTek Corp.) was utilized to determine the dermal irritancy and toxicology of octenidine distearate and octenidine dihydrochloride. The assay was performed using the EpiDerm™ Skin Model (EPI-200) as well as the Methyl thiazole tetrazolium (MT) Kit (MTT-100). The EpiDerm™ Skin Model closely parallels human skin, thus providing a useful in vitro method to assess dermal irritancy and toxicology.
Negative controls (treated with tissue culture water) were tested at 4 hours only. Following treatment, the viability of the tissues was determined using MTT uptake and reduction. The absorbance of each sample was measured at 540 nm using a reference wavelength of 690 nm. The viability was then expressed as a percent of Negative Control or Vehicle Control values. The mean percent viability for each time point was used to calculate and ET50, which represents the time at which the EpiDerm™ tissue viability was reduced 50%, compared to Negative Control or Vehicle Control tissues. The ET50 scores were converted to an irritancy classification.
MTT Reduction: 704 μl of mineral oil were heated at 70 C for 10 minutes.
Before use, tissues were incubated (37° C.±1 C, 5%±1% CO2) with assay medium (MatTek) for a one-hour equilibration. Equilibration medium was replaced with fresh medium before dosing.
(§1) The test articles were diluted as described in the sample preparation above. 100 μl of the test article dilution were mixed with 1 ml of MTT solution (1 mg/ml MTT diluted in Dulbecco's Modified Eagle's Medium (DMEM). A negative control (100 μl of tissue culture water) and a vehicle control (100 μl of mineral oil) were tested concurrently. The solutions were incubated at room temperature in the dark for 60 minutes. After incubation, the solutions were visually inspected for purple coloration, which is a positive indication that the test article reduced MTT. Since tissue viability is based on MTT reduction, direct reduction by a test article can exaggerate viability, making a test article seem less irritating that it really is.
100 μl of the test article dilutions were applied to the top of each EpiDerm™ tissue. The test articles remained in contact with the EpiDerm™ tissue for 1, 4 and 24 hours. Vehicle controls (TCH20 and mineral oil) for the test articles were tested at 4 hours. A positive control (1% Triton® X-100) was tested at 4 and 9 hours. […]
(§2) At the end of the selected exposure periods, each EpiDerm™ tissue was rinsed with phosphate buffered saline (PBS) and transferred to a 24-well plate containing 300 μl of MTT solution (1 mg/ml MTT in DMEM). […] An aliquot of the extracted MTT formazan was measured at 540 nm using a plate reader (pQuant Plate Reader, Bio-Tek Instruments, Winooski, Vt.), subtracting the absorbance at a reference wavelength of 690 nm.

[3] = test system: EpiOcular™ Tissue Model (OCL-200); test: MatTek EpiOcular MTT Viability Assay (ocular irritancy); type: cell-based, human
Method: The MatTek EpiOcular™ MTT Viability Assay (MatTek Corp.) was utilized to assess ocular irritancy and toxicology of octenidine distearate and octenidine dihydrochloride. The assay was performed using the MatTek EpiOcular™ Tissue Model (OCL-200) as well as the Methyl thiazole tetrazolium (MT) Kit (MT-100). The EpiOcular™ Tissue Model closely parallels human ocular tissue, thus providing a useful in vitro method to assess ocular irritancy and toxicology.
MTT Reduction: 704 μl of mineral oil were heated at 70° C. for 10 minutes.
0.3% Triton® X-100 (MatTek) (clear liquid) was used as a positive control. Tissue culture water (TCH20) (Sigma) (clear liquid) was used as a negative control. Mineral oil (Sigma) (clear liquid) was used as a vehicle control.
Before use, tissues were incubated (37° C.±1° C., 5%±1% CO2) with assay medium (MatTek) for a one-hour equilibration. Equilibration medium was replaced with fresh medium before dosing.
as §1, with “is. […]” for “is.”
as §2, with “EpiOcular™” for “EpiDerm™”, “(PBS), soaked for 10 minutes in assay medial” for “(PBS)”, “(μQuant” for “(pQuant”
The mean absorbance value for each time point was calculated from the optical density (OD) of the duplicate samples and expressed as percent viability for each sample using the following formula: % viability=100×(OD sample/OD negative control or vehicle control) The ET50, the time at which the EpiOcular™ tissue viability was reduced 50% compared to control tissues, was then determined using a macro in Microsoft Excel 5.0, provided by MatTek, using the equation: V=a+b log t Where V=percent viability, t=time in hours, and a and b are constants that can be determined by using the viability data for two different exposure times of the text article to the tissue.

foam height, 30 sec [1]	foam height, 1 min [1]	foam height, 2 min [1]	foam height, Initial Reading [1]	Type of Foam [1]	SMILES	ET50 ([2]; human, 1.25 % w/v) [h]	Irritancy Classification [3]	ET50 [2] [h]	ET50 (hrs) [2]	Irritancy Classification [2]	ET50 [3] [min]	ET50 (min) [3]
80	78	70	86	Slightly loose	CCCCCCCCN=c1ccn(CCCCCCCCCCn2ccc(=NCCCCCCCC)cc2)cc1 [Octenidine HCl, Octenidine dihydrochloride]	1.1	Severe					
60	56	52	70	Loose	CCCCCCCCCCCCCCCCCC(=O)O.CCCCCCCCCCCCCCCCCC(=O)O.CCCCCCCCN=c1ccn(CCCCCCCCCCn2ccc(=NCCCCCCCC)cc2)cc1 [Octenidine distearate, octenidine distearate]		Non-Irritating, minimal	>24.0	greater than 24.0 hrs	Non-Irritating	>256.0	greater than 256.0 min
